For experiment [1], the system named is B16. The experiment in a line: In vitro effect on B16 melanoma cytotoxicity relative to that of Taxol, expressed as ED50/ED50 (Taxol=1). The class given is functional, Mus musculus.
Experiment [2] is described as follows: In vitro effect on microtubule assembly relative to that of Taxol, expressed as ED50/ED50 (Taxol=1). The class given is functional.

The values below come from ChEMBL document CHEMBL1150492, “Topliss approach to the synthesis of biologically active substituted N-benzoyl taxol analogues” (1994).

With `CC(=O)O[C@H]1C(=O)[C@@]2(C)[C@H]([C@H](OC(=O)c3ccccc3)[C@]3(O)C[C@H](OC(=O)[C@H](O)[C@@H](NC(=O)c4ccc(F)cc4)c4ccccc4)C(C)=C1C3(C)C)[C@]1(OC(C)=O)CO[C@@H]1C[C@@H]2O`, the ED50 ratio in experiment [1] was determined as 4.3; in experiment [2], 1.2.
Regarding `CC(=O)O[C@H]1C(=O)[C@@]2(C)[C@H]([C@H](OC(=O)c3ccccc3)[C@]3(O)C[C@H](OC(=O)[C@H](O)[C@@H](NC(=O)c4cccc(Cl)c4)c4ccccc4)C(C)=C1C3(C)C)[C@]1(OC(C)=O)CO[C@@H]1C[C@@H]2O`, the ED50 ratio in experiment [1] worked out at 1.8; in experiment [2], 2.
For `COc1ccc(C(=O)N[C@@H](c2ccccc2)[C@@H](O)C(=O)O[C@H]2C[C@@]3(O)[C@@H](OC(=O)c4ccccc4)[C@@H]4[C@]5(OC(C)=O)CO[C@@H]5C[C@H](O)[C@@]4(C)C(=O)[C@H](OC(C)=O)C(=C2C)C3(C)C)cc1`, the ED50 ratio in experiment [1] was 1.3; in experiment [2] it was 0.6.
`CC(=O)O[C@H]1C(=O)[C@@]2(C)[C@H]([C@H](OC(=O)c3ccccc3)[C@]3(O)C[C@H](OC(=O)[C@H](O)[C@@H](NC(=O)c4ccc(Cl)c(Cl)c4)c4ccccc4)C(C)=C1C3(C)C)[C@]1(OC(C)=O)CO[C@@H]1C[C@@H]2O`: the results for the ED50 ratio in experiment [1] and in experiment [2] were 10.6 and 2.1, respectively.
As to `CC(=O)O[C@H]1C(=O)[C@@]2(C)[C@H]([C@H](OC(=O)c3ccccc3)[C@]3(O)C[C@H](OC(=O)[C@H](O)[C@@H](N)c4ccccc4)C(C)=C1C3(C)C)[C@]1(OC(C)=O)CO[C@@H]1C[C@@H]2O`, the ED50 ratio in experiment [2] turned out to be 21.
In the case of `CC(=O)O[C@H]1C(=O)[C@@]2(C)[C@H]([C@H](OC(=O)c3ccccc3)[C@]3(O)C[C@H](OC(=O)[C@H](O)[C@@H](NC(=O)c4ccccc4)c4ccccc4)C(C)=C1C3(C)C)[C@]1(OC(C)=O)CO[C@@H]1C[C@@H]2O` [PACLITAXEL], the ED50 ratio in experiment [1] and in experiment [2] was 1 in each case.
Consider `CC(=O)O[C@H]1C(=O)[C@@]2(C)[C@H]([C@H](OC(=O)c3ccccc3)[C@]3(O)C[C@H](OC(=O)[C@H](O)[C@@H](NC(=O)c4cccc(N(C)C)c4)c4ccccc4)C(C)=C1C3(C)C)[C@]1(OC(C)=O)CO[C@@H]1C[C@@H]2O`, for which the ED50 ratio was 1.6 in experiment [1] and 1.4 in experiment [2].
As for `CC(=O)O[C@H]1C(=O)[C@@]2(C)[C@H]([C@H](OC(=O)c3ccccc3)[C@]3(O)C[C@H](OC(=O)[C@H](O)[C@@H](NC(=O)c4ccc(Cl)cc4)c4ccccc4)C(C)=C1C3(C)C)[C@]1(OC(C)=O)CO[C@@H]1C[C@@H]2O`, the ED50 ratio in experiment [1] stood at 1.5; in experiment [2], 2.4.
Regarding `CC(=O)O[C@H]1C(=O)[C@@]2(C)[C@H]([C@H](OC(=O)c3ccccc3)[C@]3(O)C[C@H](OC(=O)[C@H](O)[C@@H](NC(=O)c4ccc(C)cc4)c4ccccc4)C(C)=C1C3(C)C)[C@]1(OC(C)=O)CO[C@@H]1C[C@@H]2O`, the ED50 ratio in experiment [1] is 1.4; in experiment [2] it was 1.6.
On the same counts, the results for `CC(=O)O[C@H]1C(=O)[C@@]2(C)[C@H]([C@H](OC(=O)c3ccccc3)[C@]3(O)C[C@H](OC(=O)[C@H](O)[C@@H](NC(=O)c4ccc([N+](=O)[O-])cc4)c4ccccc4)C(C)=C1C3(C)C)[C@]1(OC(C)=O)CO[C@@H]1C[C@@H]2O` are 20.7 and 2.
`CC(=O)O[C@H]1C(=O)[C@@]2(C)[C@H]([C@H](OC(=O)c3ccccc3)[C@]3(O)C[C@H](OC(=O)[C@H](O)[C@@H](NC(=O)c4ccccc4C)c4ccccc4)C(C)=C1C3(C)C)[C@]1(OC(C)=O)CO[C@@H]1C[C@@H]2O`: the ED50 ratio came to 7.5 in experiment [1] and 1.9 in experiment [2].
